# Laboratory results as given in patent publication US6441036B1 (priority 1998, dated 2002).
# Key:
# [1] = Weight reduction in dogs (Example 10); format: in vivo; details: male dogs, 500 mg/kg/day orally in capsules
# Method: 3 male dogs (4-6 months old) were housed singly during the days. Each animal was offered 400g of SQC Diet A each morning after dosing and any residue diet was removed in the afternoon. The drug was administered orally in capsules once daily for 28 days.
# [2] = Lipid lowering effect in normal Wistar rats (Example 4); format: in vivo; details: gavage once daily for 7 days; dose mg/day/kg body weight: TSA 15, EPA 1500, TTA 150
# Method: Male Wistar rats, weighing 180-200 g at the start of the experiment, were housed individually in metal wire cages in a room maintained at 12 h light-dark cycles and a constant temperature of 20±3° C. The animals were acclimatised for one week under these conditions before the start of the experiments.
# TTA, TSA and eicosapentaenoic acid (EPA) were suspended in 0.5% (w/v) carboxymethyl cellulose (CMC). Six animals were used for each treatment, and a 0.5% CMC solution was administrated to the rats as control. After administration of the test compound, the rats were fasted for 12 hours and anaesthetised with haloethan. The EPA and the fatty acid derivatives were administered by gastric intubation (gavage) once daily for 7 days. Blood samples were collected by cardiac puncture, and lipid concentrations in plasma were determined as outlined in the method section.
# [3] = Blood insulin and glucose in 5 weeks old Zucker (fa/fa) rats (Example 13); format: in vivo; details: 300 mg/kg/day by oral gavage, 11 days
# Method: (§1) Glucose (GLU, Boehringer Mannheim, Germany), free fatty acids (NEFA, C ACS-ACOD kit; Wako Chemicals, Dalton, USA) and b-hydroxybutyrate (310-A kit; Sigma Diagnostics Inc., St. Louis, USA) concentrations were measured using enzymatic methods. Insulin concentrations were determined with radioimmunoassay by (CIS bio International, Gif sur Yvette, France) using rat insulin as standard in the Zucker rats. In the Wistar Charles River rats, plasma glucose concentrations were measured with the aid of Beckman Glucose Analyzer (Fullerton, Calif., USA). Plasma insulin levels were measured using a RIA kit from Linco Research Inc. (St. Charles, Mo., USA). Phospholipids were measured by the enzymatic method of bioMérieux, Marcy-l{grave over ( )}Etoile, France, Triacylglycerol by the Technicon Method no. SA4-0324L90, USA and Cholesterol by the Technicon Method no. SA4-0305L90, USA.
# The rats were administered TTA at a dose of 300 mg/kg/day suspended in 0.5% CMC (n=6) by oral gavage. Following 11 days of treatment, rats were killed by cervical dislocation. Blood was collected and the levels of insulin and glucose measured as indicated in the method section. Data are means±S.D.
# [4] = Lipid lowering effect in obese Zucker fa/fa rats (Example 3); format: in vivo; details: 300 mg/day/kg by gavage once daily for 10 days; control palmitic acid
# Method: as §1
# Male obese Zucker fa/fa rats, weighing 100 g at the start of the experiment, were housed in pairs in metal wire cages in a room maintained at 12 h light-dark cycles and a constant temperature of 20±3° C. The animals were acclimatised for at least one week under these conditions before the start of the experiment.
# TTA (tetradecylthioacetic acid) prepared in accordance with procedure described previously, and palmitic acid (control), was suspended in 0.5% (w/v) carboxymethyl cellulose (CMC). Six animals were used in both groups. TTA (tetradecylthioacetic acid) and palmitic acid were administered at a dose of 300 mg/day/kg body weight, by gastric intubation (gavage) once daily for 10 days. The rats were fasted for 2 hours before termination of the experiment. Blood and organs were collected. Lipid concentrations in plasma were determined using an autoanalyzer, as described in the method section.
# [5] = system: Salmonella typhimurium; test: Test for mutagenic activity in Salmonella typhimurium strains; format: cell-based; details: 3-1000 mg/plate (TTA), 2-5000 mg/plate (TSA)
# Excerpt: (§2) Tests for mutagenic activity have been performed by Covance Laboratories Limited, England. […] Furthermore, TTA was not mutagenic when tested in mouse lymphoma cells […] L5178Y.
# [6] = Blood insulin and glucose in 4 month old obese Zucker (fa/fa) rats (Example 13); format: in vivo; details: standard chow with 0.15% TTA, 21 days
# Method: as §1
# The rats were given a standard chow diet, either with (n=5) or without (n=6) 0.15% TTA. Following 21 days of treatment, blood was collected and the levels of insulin and glucose measured. Data are means±S.D.
# [7] = Body weight of normal rats after 12 weeks (Example 6); format: in vivo; details: male Wistar rats, oral, 12 weeks of treatment
# Method: 2 groups of 6 male Wistar Rats were randomly selected, and studied for weight development over a period of 12 week. The body weight of each Wistar rat was measured at the start of the experiment. All animals in both groups received individually the same amount of food (nutrition) during the experimental period of 12 weeks. All animals in one of the groups were orally administrated with the medicament comprising TTA. The other group was the control group (CMC). After the 12 week period the body weight of rats were measured again.
# [8] = system: mouse lymphoma cells, L5178Y; test: Mutagenicity test in mouse lymphoma cells L5178Y; format: cell-based; details: concentration 2.5-50 mg/ml
# Excerpt: as §2
# [9] = Hepatic levels of triacylglycerol (Example 17); format: in vivo, Wistar rats; details: fed 6 days, no prefeeding; TTA 150 mg/kg/day, TTP 300 mg/kg/day
# Method: Male Wistar rats had free access to water and rat maintenance chow. They were fed palmitic acid or fatty acid analogues suspended in 0.5% CMC for 6 days. In some experiments TTA or TTP were fed for 3 days before feeding both for 6 days. At the end of the experiment the rats were fasted overnight, killed, the liver removed and homogenized. Triacylglycerol was measured in the homogenate.
# [10] = High fat diet feeding, adipose tissue weights (Example 5); format: in vivo, Wistar Charles River rats; details: high fat diet + 0.4% TTA, three weeks; means ± SEM
# Method: Male Wistar rats Charles River rats weighing 280-358 g were purchases from AnLab Ltd. (Prague, Czech Repubic) and housed in wire-mesh cages in a temperature (22±1° C.) and light-controlled (light from 7:00 a.m. to 7.00 p.m.) room. They were given free access to chow and water. Three rats were housed per cage. Weight gain and food intake were recorded daily.
# High fat (HF): 1.9% gelatin, 5.7% wheat bran, 7.7% vitamins and minerals, 25.4% corn starch, 25.7% casein, 26.8% beef tallow and 7.1 % sunflower oil.
# HF+TTA: Same +0.4% TTA dissolved in the beef tallow.
# Male Wistar Charles River rats (280-360 g) were fed 3 different diets (see methods) for 3 weeks ad libitum. Afterwards, they were killed by decapitation, liver and epididymal adipose tissue pads were dissected out and weighed.
# [11] = system: Escherichia coli; test: Test for mutagenic activity in Escherichia coli strains; format: cell-based; details: 3-1000 mg/plate (TTA), 2-5000 mg/plate (TSA)
# Excerpt: as §2
# [12] = Plasma lipids after feeding moderate doses to animals; format: in vivo, rats, mice, rabbits and dogs; details: within days of treatment
# [13] = Intravenous glucose tolerance test (IVGTT); format: in vivo; details: 5 weeks old Zucker (fa/fa) rats
# Method: Male Zucker (fa/fa) rats (5 weeks old) were anaesthetised after a 5-hours fast, by intraperitoneal injection of sodium pentobarbital (50 mg/kg). The rats were injected with glucose (0.55 g/kg) in the saphenous vein and blood samples were collected from the tail vein in heparinized tubes at time 0, 5, 10, 15, 20 and 30 minutes after the glucose load. Samples were kept on ice, centrifuged and plasma was stored at −20° C. until analysis.
substance,measurement,setting,value
Tetradecylthioacetic acid [TTA],Mean body weight,[1]; week 0,9.22 kg
same,Mean body weight,[1]; week 1,8.95 kg
same,Mean body weight,[1]; week 2,8.75 kg
same,Mean body weight,[1]; week 3,8.58 kg
same,Mean body weight,[1]; week 4,8.50 kg
same,Plasma lipids: cholesterol,[2],30 % reduction of control
same,Plasma lipids: triglycerides,[2],45 % reduction of control
same,Reduction of blood concentration of glucose (FIG. 5),[3],~15%
same,Reduction of blood insulin concentration (FIG. 5),[3],~40%
same,Decreased lipid level in plasma: Cholesterol,[4],73 % of control
same,Decreased lipid level in plasma: Phospholipids,[4],71 % of control
same,Decreased lipid level in plasma: Triglycerides,[4],72 % of control
same,Induction of mutations,[5],did not induce mutations
same,Blood glucose concentration (FIG. 6),[6],reduces
same,Blood insulin concentration (FIG. 6),[6],reduces
same,Body weight gain,[7],234 ± 20 g
same,Mutagenicity,[8],not mutagenic
same,Hepatic TG (triacylglycerol),[9],7.7 ± 2.9 µmol/g
same,Epididymal adipose tissue,[10],3.1 ± 0.2 g
same,Retroperitoneal adipose tissue,[10],2.7 ± 0.2 g
same,Induction of mutations,[11],did not induce mutations
same,Plasma cholesterol and triacylglycerol levels,[12],decreased
same,IVGTT glucose curves (FIG. 7B),[13]; TTA treated versus control,normal and comparable
same,Plasma insulin response to glucose (FIG. 7A),[13]; glucose 0.55 g/kg i.v.,significantly lower
